This experiment concerns the target T1, PAK7 (KIAA1264) (Homo sapiens, UniProt Q9P286).
T1 construct: purchased Thermo Fisher Scientific (Life Technologies) SelectScreen
Description: SelectScreen Z'LYTE. It is filed as biochemical. Summed up: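 Percent values come from Thermo SelectScreen profiling of NU5455, combining activity and binding assays. CSF1R was run in Z'LYTE format at Km app ATP, and CAMK1 in Adapta format with ATP listed at 10.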

T1 sequence (Q9P286 whole entry): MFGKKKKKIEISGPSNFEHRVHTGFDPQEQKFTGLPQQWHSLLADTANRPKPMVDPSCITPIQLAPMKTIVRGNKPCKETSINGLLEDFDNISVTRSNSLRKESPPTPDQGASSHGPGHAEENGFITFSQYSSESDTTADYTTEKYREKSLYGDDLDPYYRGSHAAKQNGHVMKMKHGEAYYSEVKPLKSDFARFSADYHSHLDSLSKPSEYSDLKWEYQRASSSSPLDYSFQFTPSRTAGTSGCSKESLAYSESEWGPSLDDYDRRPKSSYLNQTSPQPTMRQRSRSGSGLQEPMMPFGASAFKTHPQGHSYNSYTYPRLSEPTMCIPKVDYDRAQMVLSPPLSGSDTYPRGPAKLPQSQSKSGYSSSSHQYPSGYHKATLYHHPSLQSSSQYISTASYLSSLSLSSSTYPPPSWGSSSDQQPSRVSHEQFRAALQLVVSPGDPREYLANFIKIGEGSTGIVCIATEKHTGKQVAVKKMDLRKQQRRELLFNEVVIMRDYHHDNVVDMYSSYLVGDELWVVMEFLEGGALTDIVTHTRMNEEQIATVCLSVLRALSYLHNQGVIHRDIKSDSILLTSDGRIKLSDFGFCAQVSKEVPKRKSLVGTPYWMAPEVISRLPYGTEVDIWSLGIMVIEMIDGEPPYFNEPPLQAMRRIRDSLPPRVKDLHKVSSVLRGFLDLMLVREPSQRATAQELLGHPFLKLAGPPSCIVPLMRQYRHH

In the case of `CN(C(=O)CN1CCOCC1)c1ccc2sc3c(-c4cccc5c(=O)cc(N6CC7CCC(C6)O7)oc45)cccc3c2c1` [NU5455], testing at 1 µM gave an inhibition of 5.7%.

Source of the values: publication PMC6934184, “Selective DNA-PKcs inhibition extends the therapeutic index of localized radiotherapy and chemotherapy” (The Journal of Clinical Investigation, 2019).
